Columns and labels:
Assay type in all cases: biochemical
PI3K α = PI3K α (Homo sapiens (Human), UniProt P42336); test: PI 3-Kinase (human) HTRF assay, p110α/p85α
PI3K β = PI3K β (Homo sapiens (Human), UniProt P42338); test: PI 3-Kinase (human) HTRF assay, p110β/p85α
PI3K δ = PI3K δ (Homo sapiens (Human), UniProt O00329); test: PI 3-Kinase (human) HTRF assay, p110δ/p85α
PI3K γ = PI3K γ (Homo sapiens (Human), UniProt P48736); test: PI 3-Kinase (human) HTRF assay, p110γ; details: read-out: PI3K γ IC50
PI3K γ, sequence (P48736 whole entry): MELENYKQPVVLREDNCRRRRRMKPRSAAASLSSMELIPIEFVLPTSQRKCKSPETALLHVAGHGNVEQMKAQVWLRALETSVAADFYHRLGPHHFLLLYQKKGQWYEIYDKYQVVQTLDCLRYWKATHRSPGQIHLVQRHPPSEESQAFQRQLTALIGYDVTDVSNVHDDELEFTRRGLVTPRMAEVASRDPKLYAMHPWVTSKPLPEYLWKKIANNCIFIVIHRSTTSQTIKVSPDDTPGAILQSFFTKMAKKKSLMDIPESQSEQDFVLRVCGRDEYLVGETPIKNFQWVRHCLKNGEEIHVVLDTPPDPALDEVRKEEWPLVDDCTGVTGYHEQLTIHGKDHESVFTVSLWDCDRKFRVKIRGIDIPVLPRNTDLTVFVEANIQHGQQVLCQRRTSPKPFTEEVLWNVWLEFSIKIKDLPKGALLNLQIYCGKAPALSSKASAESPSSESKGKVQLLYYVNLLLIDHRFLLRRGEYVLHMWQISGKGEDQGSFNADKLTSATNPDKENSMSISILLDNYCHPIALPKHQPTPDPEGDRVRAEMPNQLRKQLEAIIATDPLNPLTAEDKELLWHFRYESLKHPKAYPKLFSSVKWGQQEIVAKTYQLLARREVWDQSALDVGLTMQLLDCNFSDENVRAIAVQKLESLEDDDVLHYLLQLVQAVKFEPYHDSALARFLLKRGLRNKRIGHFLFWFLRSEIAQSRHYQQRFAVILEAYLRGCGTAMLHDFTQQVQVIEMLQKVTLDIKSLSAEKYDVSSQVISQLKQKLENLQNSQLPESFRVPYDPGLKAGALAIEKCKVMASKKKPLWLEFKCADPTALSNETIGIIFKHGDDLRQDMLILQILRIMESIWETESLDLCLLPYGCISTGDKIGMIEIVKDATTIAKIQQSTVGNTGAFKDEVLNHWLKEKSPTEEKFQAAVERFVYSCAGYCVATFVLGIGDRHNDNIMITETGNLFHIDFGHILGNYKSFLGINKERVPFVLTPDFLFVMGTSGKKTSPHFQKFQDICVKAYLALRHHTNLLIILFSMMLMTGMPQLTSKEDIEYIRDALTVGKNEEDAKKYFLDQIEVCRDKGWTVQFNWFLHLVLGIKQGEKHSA

PI3K β, sequence (P42338 whole entry): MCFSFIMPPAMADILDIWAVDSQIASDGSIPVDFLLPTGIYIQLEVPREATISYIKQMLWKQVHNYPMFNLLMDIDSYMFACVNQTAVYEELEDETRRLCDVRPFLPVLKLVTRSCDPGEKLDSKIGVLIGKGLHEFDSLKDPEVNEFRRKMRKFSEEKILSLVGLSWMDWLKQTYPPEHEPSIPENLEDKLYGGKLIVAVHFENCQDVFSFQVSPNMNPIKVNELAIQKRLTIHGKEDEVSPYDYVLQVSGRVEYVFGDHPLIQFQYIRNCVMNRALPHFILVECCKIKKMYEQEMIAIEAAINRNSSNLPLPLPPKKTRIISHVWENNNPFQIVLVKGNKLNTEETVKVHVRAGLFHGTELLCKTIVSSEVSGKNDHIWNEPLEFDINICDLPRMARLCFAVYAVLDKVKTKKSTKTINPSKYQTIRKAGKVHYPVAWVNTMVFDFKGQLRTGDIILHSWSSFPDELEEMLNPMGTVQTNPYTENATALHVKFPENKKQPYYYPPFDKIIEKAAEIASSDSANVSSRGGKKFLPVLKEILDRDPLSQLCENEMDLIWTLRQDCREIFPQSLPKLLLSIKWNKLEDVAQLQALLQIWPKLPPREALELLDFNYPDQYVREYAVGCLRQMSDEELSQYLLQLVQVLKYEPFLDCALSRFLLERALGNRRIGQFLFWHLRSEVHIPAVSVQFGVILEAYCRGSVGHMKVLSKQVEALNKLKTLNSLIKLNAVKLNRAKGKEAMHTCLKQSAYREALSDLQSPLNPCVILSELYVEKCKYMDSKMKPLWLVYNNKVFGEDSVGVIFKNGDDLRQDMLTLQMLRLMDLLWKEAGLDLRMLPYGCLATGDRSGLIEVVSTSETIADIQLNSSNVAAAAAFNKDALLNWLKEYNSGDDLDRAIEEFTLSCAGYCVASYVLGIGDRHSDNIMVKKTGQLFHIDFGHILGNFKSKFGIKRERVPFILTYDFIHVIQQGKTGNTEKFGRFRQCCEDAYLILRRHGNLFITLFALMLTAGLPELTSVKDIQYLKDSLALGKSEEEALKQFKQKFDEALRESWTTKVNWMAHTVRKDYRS
PI3K β, sequence (P27986 whole entry partner): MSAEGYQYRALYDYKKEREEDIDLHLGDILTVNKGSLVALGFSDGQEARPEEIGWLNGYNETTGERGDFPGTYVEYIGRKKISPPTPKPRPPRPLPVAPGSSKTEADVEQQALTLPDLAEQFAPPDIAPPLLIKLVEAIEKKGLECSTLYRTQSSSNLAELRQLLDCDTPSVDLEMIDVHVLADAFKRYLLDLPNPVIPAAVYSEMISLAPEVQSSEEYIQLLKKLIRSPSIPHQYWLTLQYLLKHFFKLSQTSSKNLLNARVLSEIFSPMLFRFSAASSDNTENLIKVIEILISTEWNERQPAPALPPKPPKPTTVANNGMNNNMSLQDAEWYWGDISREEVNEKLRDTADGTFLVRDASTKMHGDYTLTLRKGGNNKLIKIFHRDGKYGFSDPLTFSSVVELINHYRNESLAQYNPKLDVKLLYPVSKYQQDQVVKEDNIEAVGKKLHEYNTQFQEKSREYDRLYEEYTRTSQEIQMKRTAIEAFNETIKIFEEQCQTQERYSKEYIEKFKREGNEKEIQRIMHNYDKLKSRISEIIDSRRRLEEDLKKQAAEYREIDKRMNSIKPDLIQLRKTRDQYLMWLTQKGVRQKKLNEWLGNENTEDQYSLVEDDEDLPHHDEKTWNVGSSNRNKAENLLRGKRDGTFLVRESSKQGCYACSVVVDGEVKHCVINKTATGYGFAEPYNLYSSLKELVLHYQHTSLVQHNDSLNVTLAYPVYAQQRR
PI3K δ, sequence (O00329 whole entry): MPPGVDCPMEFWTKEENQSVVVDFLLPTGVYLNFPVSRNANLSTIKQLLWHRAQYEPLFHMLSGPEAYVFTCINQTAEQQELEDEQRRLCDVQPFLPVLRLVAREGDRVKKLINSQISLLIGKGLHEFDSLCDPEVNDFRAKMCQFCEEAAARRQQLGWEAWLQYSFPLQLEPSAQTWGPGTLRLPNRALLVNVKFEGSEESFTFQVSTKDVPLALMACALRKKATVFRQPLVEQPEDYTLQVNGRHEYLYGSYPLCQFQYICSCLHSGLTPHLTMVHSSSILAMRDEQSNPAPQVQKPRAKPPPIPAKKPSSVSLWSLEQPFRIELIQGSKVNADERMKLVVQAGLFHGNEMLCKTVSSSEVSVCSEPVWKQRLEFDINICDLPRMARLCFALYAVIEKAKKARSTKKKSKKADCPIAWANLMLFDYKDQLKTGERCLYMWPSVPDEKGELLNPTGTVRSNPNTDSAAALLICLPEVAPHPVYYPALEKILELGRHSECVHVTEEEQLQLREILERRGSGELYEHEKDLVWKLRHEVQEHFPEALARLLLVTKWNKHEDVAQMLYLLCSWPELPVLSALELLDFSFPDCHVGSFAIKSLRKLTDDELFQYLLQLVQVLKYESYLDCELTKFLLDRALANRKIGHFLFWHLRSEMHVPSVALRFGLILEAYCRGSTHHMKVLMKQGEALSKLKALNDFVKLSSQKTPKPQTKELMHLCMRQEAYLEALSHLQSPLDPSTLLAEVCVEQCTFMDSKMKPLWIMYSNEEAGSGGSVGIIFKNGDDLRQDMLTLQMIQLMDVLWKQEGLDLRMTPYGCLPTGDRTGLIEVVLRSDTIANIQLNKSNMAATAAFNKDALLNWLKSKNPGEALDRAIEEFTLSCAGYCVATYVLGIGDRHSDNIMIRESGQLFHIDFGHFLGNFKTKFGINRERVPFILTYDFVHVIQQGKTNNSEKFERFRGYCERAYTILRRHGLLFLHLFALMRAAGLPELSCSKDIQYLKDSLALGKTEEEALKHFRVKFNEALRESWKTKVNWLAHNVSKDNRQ
PI3K δ, sequence (P27986 whole entry partner): as the sequence (P27986 whole entry partner) above
PI3K α, sequence (P42336 whole entry): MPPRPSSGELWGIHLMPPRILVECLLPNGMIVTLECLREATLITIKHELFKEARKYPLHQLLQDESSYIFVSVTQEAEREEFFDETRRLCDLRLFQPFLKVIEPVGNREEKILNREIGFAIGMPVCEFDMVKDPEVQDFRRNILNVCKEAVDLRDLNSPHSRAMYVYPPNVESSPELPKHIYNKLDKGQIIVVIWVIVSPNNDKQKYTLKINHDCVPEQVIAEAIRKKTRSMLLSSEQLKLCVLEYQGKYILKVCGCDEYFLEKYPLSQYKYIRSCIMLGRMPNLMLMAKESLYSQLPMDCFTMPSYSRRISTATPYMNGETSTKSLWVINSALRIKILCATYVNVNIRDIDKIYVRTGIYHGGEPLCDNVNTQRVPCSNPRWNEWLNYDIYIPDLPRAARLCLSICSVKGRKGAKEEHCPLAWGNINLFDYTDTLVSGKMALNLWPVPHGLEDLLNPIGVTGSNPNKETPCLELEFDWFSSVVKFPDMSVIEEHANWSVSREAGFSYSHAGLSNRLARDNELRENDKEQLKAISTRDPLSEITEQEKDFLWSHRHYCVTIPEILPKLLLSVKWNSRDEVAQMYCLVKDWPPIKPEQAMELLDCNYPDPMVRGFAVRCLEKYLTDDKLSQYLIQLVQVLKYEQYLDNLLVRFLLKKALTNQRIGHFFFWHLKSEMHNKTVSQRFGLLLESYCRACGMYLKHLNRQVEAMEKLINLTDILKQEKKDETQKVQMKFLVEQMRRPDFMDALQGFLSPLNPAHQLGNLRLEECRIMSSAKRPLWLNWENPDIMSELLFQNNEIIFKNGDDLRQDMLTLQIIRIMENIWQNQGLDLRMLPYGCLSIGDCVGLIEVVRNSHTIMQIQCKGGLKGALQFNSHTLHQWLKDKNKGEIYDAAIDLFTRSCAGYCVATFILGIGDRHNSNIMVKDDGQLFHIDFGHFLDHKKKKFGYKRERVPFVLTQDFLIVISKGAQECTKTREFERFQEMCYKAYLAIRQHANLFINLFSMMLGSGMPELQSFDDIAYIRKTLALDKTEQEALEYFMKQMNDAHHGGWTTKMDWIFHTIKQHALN
PI3K α, sequence (P27986 whole entry partner): as the sequence (P27986 whole entry partner) above

SMILES | IC50 (PI3K α) [nM] | IC50 (PI3K β) [nM] | IC50 (PI3K δ) [nM] | IC50 (PI3K γ) [nM]
Cc1ccc(-c2cnc3ccc(-c4ccc5oc(N)nc5c4)cc3n2)cn1 | < 100 | > 10000 | > 10000 | < 100
Nc1nc2cc(-c3ccc4ncc(-c5cccnc5)n4n3)ccc2o1 | < 100 | < 100 | < 100 | < 100
CC1CN(c2cnc3ccc(-c4ccc5oc(N)nc5c4)cc3n2)CC(C)N1 (stereo not drawn) | < 1000 | < 1000 | < 1000 | < 1000
Nc1nc2cc(-c3ccc4ncc(N5CCS(=O)(=O)CC5)nc4c3)ccc2o1 | < 100 | > 10000 | > 10000 | < 100
Nc1nc2cc(-c3ccc4ncc(C(=O)N5CCCC5)n4c3)ccc2o1 | < 100 | < 10000 | < 1000 | < 100
Nc1nc2cc(-c3cnc4ncc(-c5ccncc5)n4c3)ccc2o1 | > 10000 | > 10000 | > 10000 | > 10000
CN1CCC(N(C)c2ncnc3ccc(-c4ccc5oc(N)nc5c4)cc23)CC1 | < 100 | < 100 | < 1000 | < 100
Nc1nc2cc(-c3ccc4ncc(N[C@H]5CC[C@H](O)CC5)nc4c3)ccc2o1 | < 100 | < 10000 | < 100 | < 100
CC(=O)Nc1nc2ccc(-c3nc(N4CCOCC4)c4sc(CN5CCN(S(C)(=O)=O)CC5)cc4n3)cc2s1 | > 10000 | > 10000 | > 10000 | > 10000
CN1CCN(C(=O)c2cnc3ccc(-c4ccc5nc(N)sc5c4)cn23)CC1 | < 10000 | < 10000 | > 10000 | > 10000
Nc1nc2cc(-c3ccc4ncc(N5CCN(C(=O)[C@@H]6CCCN6)CC5)nc4c3)ccc2o1 | < 100 | < 100 | < 100 | < 100
Cc1nccn1-c1cnc2ccc(-c3ccc4oc(N)nc4c3)cc2n1 | < 100 | < 1000 | < 10000 | < 100
CCN1CCN(c2cnc3ccc(-c4ccc5oc(N)nc5c4)cc3n2)CC1 | < 100 | < 100 | < 10000 | < 1000
CNC(=O)N1CCN(c2cnc3ccc(-c4ccc5oc(N)nc5c4)cc3n2)CC1 | < 100 | < 1000 | < 10000 | < 100
CN1CC(C(=O)N2CCC(Nc3ncnc4ccc(-c5ccc6oc(N)nc6c5)cc34)CC2)C1 | < 100 | < 1000 | < 100 | < 1000
Nc1nc2cc(-c3ccc4ncc(C(=O)N5CCOCC5)n4n3)ccc2o1 | < 1000 | < 10000 | > 10000 | < 1000
Nc1nc2cc(-c3ccc4ncc(-c5ccccn5)nc4c3)ccc2o1 | < 1000 | < 10000 | > 10000 | < 100

Continued, values first:

IC50 (PI3K α) [nM] | IC50 (PI3K β) [nM] | IC50 (PI3K δ) [nM] | IC50 (PI3K γ) [nM] | SMILES
< 100 | < 1000 | < 10000 | < 10000 | C[C@@H]1CN(c2cnc3ccc(-c4ccc5oc(N)nc5c4)cc3n2)CCN1
< 1000 | < 1000 | < 10000 | < 10000 | CN1CCN(c2cnc3ccc(-c4ccc5oc(N)nc5c4)nc3n2)CC1
< 100 | < 10000 | > 10000 | < 100 | C[C@H]1COCCN1c1cnc2ccc(-c3ccc4oc(N)nc4c3)nc2n1
< 100 | < 10000 | < 10000 | < 100 | CCOC(=O)N1CC=C(c2cnc3ccc(-c4ccc5oc(N)nc5c4)nc3n2)CC1
< 100 | > 10000 | > 10000 | < 100 | Nc1nc2cc(-c3ccc4ncc(N5CCC(F)(F)CC5)nc4n3)ccc2o1
< 1000 | > 10000 | < 10000 | < 1000 | CCN(CC)c1cnc2ccc(-c3ccc4oc(N)nc4c3)nc2n1
< 1000 | > 10000 | > 10000 | > 10000 | Nc1nc2cc(-c3ccc4ncc(N5CC(N6CCNCC6)C5)nc4n3)ccc2o1

From patent publication US9682141B2, “Combination of kinase inhibitors and uses thereof” (INTELLIKINE LLC, priority 2011, dated 2017)
